The source made the active and inactive calls. Rule for the calls: active = viability on the fitted dose curve at most 10% of control; inactive = the rest.
System: NCI-H841 complex tumor spheroid viability
Experiment: Anticancer human tumor NCI-H841 cell line growth inhibition;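 for IC50: spheroids exposed to compounds for 7 days before readout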;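 for viability, T/C: spheroids exposed to compounds for 7 days before readout; 100% = DMSO vehicle control wells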
Conditions: for IC50: curve of first compound; for viability, T/C: stronger effect = lower value
In short: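 Single agents and combinations were tested on spheroids built from tumor cells plus HUVEC and hMSC, at half-log dilutions starting at or near clinical Cmax, else 10 microM; final DMSO 0.25% (v/v).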

[1] = second compound 1 µM, first compound 0.0316 µM
[2] = second compound 1 µM, first compound 0.1 µM
[3] = second compound 1 µM, first compound 0.316 µM
[4] = second compound 1 µM, first compound 1 µM
[5] = second compound 1 µM, first compound 3.16 µM
[6] = second compound 1 µM, first compound 10 µM
[7] = second compound 3.16 µM, first compound 0.0316 µM
[8] = second compound 3.16 µM, first compound 0.1 µM
[9] = second compound 3.16 µM, first compound 0.316 µM
[10] = second compound 3.16 µM, first compound 1 µM
[11] = second compound 3.16 µM, first compound 3.16 µM
[12] = second compound 3.16 µM, first compound 10 µM
[13] = second compound 10 µM, first compound 0.0316 µM
[14] = second compound 10 µM, first compound 0.1 µM
[15] = second compound 10 µM, first compound 0.316 µM
[16] = second compound 10 µM, first compound 1 µM
[17] = second compound 10 µM, first compound 3.16 µM
[18] = second compound 10 µM, first compound 10 µM
[19] = second compound 31.6 µM, first compound 0.0316 µM
[20] = second compound 31.6 µM, first compound 0.1 µM
[21] = second compound 31.6 µM, first compound 0.316 µM
[22] = second compound 31.6 µM, first compound 1 µM
[23] = second compound 31.6 µM, first compound 3.16 µM
[24] = second compound 31.6 µM, first compound 10 µM
[25] = second compound 100 µM, first compound 0.0316 µM
[26] = second compound 100 µM, first compound 0.1 µM
[27] = second compound 100 µM, first compound 0.316 µM
[28] = second compound 100 µM, first compound 1 µM
[29] = second compound 100 µM, first compound 3.16 µM
[30] = second compound 100 µM, first compound 10 µM

CC1COCCN1c1cc(-c2ccnn2C)c2ccnc(-c3ccn[nH]3)c2n1 (stereo not given) + Cn1nnc2c(C(N)=O)ncn2c1=O
active: viability, T/C [3] 8.33% | viability, T/C [4] 2.75% | viability, T/C [5] 1.79% | viability, T/C [6] 1.91% | viability, T/C [9] 5.48% | viability, T/C [10] 2.34% | viability, T/C [11] 1.67% | viability, T/C [12] 1.99% | viability, T/C [15] 6.12% | viability, T/C [16] 2.58% | viability, T/C [17] 1.4% | viability, T/C [18] 1.82% | viability, T/C [21] 4.22% | viability, T/C [22] 1.97% | viability, T/C [23] 1.42% | viability, T/C [24] 1.66% | viability, T/C [26] 6.68% | viability, T/C [27] 1.75% | viability, T/C [28] 2.09% | viability, T/C [29] 2.84% | viability, T/C [30] 1.47%
37.6 nM: IC50 (second compound 3.16 µM)
inactive: viability, T/C [1] 66% | viability, T/C [2] 24.1% | outcome [7] | viability, T/C [8] 20.8% | viability, T/C [13] 55.4% | viability, T/C [14] 12.6% | viability, T/C [19] 56% | viability, T/C [20] 12.1% | viability, T/C [25] 23.6%
< 31.6 nM: IC50 (second compound 100 µM)
36.9 nM: IC50 (second compound 31.6 µM)
49.1 nM: IC50 (second compound 1 µM)
36.3 nM: IC50 (second compound 10 µM)

COc1cc(C)[nH]c(=O)c1CN1CCc2c(Cl)cc(C(OC)C3COC3)c(Cl)c2C1=O (stereo not given) + Cn1nnc2c(C(N)=O)ncn2c1=O
547 nM: IC50 (second compound 3.16 µM)
428 nM: IC50 (second compound 31.6 µM)
367 nM: IC50 (second compound 10 µM)
394 nM: IC50 (second compound 100 µM)
inactive: viability, T/C [1] 79.7% | viability, T/C [2] 67.1% | viability, T/C [3] 48.4% | viability, T/C [4] 45.4% | viability, T/C [5] 33.9% | viability, T/C [6] 31.3% | viability, T/C [7] 85% | viability, T/C [8] 63.5% | viability, T/C [9] 54.5% | viability, T/C [10] 47.8% | viability, T/C [11] 38.5% | viability, T/C [12] 32.8% | viability, T/C [13] 86% | viability, T/C [14] 67% | viability, T/C [15] 50.6% | viability, T/C [16] 41.1% | viability, T/C [17] 35.9% | viability, T/C [18] 30.9% | viability, T/C [19] 83.9% | viability, T/C [20] 70.3% | viability, T/C [21] 49.8% | viability, T/C [22] 41.8% | viability, T/C [23] 36.9% | viability, T/C [24] 27% | viability, T/C [25] 87.3% | viability, T/C [26] 77.6% | viability, T/C [27] 51.2% | viability, T/C [28] 39.9% | viability, T/C [29] 36.5% | viability, T/C [30] 30.8%
398 nM: IC50 (second compound 1 µM)

COc1ccc([C@@H](O)c2cc(-c3ncnc4cc(N5CCOCC5)ccc34)c(F)cc2Cl)nn1 + Cn1nnc2c(C(N)=O)ncn2c1=O
2010 nM: IC50 (second compound 3.16 µM)
1820 nM: IC50 (second compound 100 µM)
2040 nM: IC50 (second compound 1 µM)
2050 nM: IC50 (second compound 10 µM)
active: viability, T/C [6] 7.89% | viability, T/C [12] 8.99% | viability, T/C [18] 9.08% | viability, T/C [24] 8.74% | viability, T/C [30] 7.13%
inactive: viability, T/C [1] 100% | viability, T/C [2] 99.1% | viability, T/C [3] 92.7% | outcome [4] | viability, T/C [5] 36% | viability, T/C [7] 102% | viability, T/C [8] 104% | viability, T/C [9] 97.1% | viability, T/C [10] 70.7% | viability, T/C [11] 36.4% | viability, T/C [13] 103% | viability, T/C [14] 105% | viability, T/C [15] 91% | viability, T/C [16] 80.1% | viability, T/C [17] 32.1% | viability, T/C [19] 97.5% | viability, T/C [20] 99.7% | viability, T/C [21] 95.3% | viability, T/C [22] 79.3% | viability, T/C [23] 38.1% | viability, T/C [25] 97.5% | viability, T/C [26] 100% | viability, T/C [27] 87% | viability, T/C [28] 71% | viability, T/C [29] 31.5%
2270 nM: IC50 (second compound 31.6 µM)

Cc1cc(C)c(CNC(=O)c2cc(-c3ccc(CN4CCOCC4)cc3)cc3c2cnn3C2CCCC2)c(=O)[nH]1 + Cn1nnc2c(C(N)=O)ncn2c1=O
inactive: viability, T/C [1] 101% | viability, T/C [2] 102% | viability, T/C [3] 97.2% | viability, T/C [4] 94.6% | viability, T/C [5] 78.9% | viability, T/C [6] 40.1% | viability, T/C [7] 101% | viability, T/C [8] 105% | viability, T/C [9] 102% | viability, T/C [10] 97.4% | viability, T/C [11] 85.2% | viability, T/C [12] 56.3% | viability, T/C [13] 103% | viability, T/C [14] 108% | viability, T/C [15] 105% | viability, T/C [16] 94.9% | viability, T/C [17] 87.2% | viability, T/C [18] 52.5% | outcome [19] | viability, T/C [20] 101% | viability, T/C [21] 97.6% | viability, T/C [22] 103% | viability, T/C [23] 83% | viability, T/C [24] 49.2% | viability, T/C [25] 98.3% | viability, T/C [26] 99.2% | viability, T/C [27] 95.8% | viability, T/C [28] 97.6% | viability, T/C [29] 77.6% | viability, T/C [30] 41.7%
> 10000 nM: IC50 (second compound 3.16 µM) | IC50 (second compound 10 µM)
9720 nM: IC50 (second compound 31.6 µM)
7500 nM: IC50 (second compound 1 µM)
7700 nM: IC50 (second compound 100 µM)

Cc1sc2c(c1C)C(c1ccc(Cl)cc1)=NC(CC(=O)Nc1ccc(O)cc1)c1nnc(C)n1-2 (stereo not given) + Cn1nnc2c(C(N)=O)ncn2c1=O
active: viability, T/C (second compound 1 µM, first compound 3 µM) 6.54% | viability, T/C (second compound 3.16 µM, first compound 3 µM) 5.5% | viability, T/C (second compound 10 µM, first compound 3 µM) 4.47% | viability, T/C (second compound 31.6 µM, first compound 3 µM) 2.27% | viability, T/C (second compound 100 µM, first compound 0.949 µM) 5.34% | viability, T/C (second compound 100 µM, first compound 3 µM) 1.69%
375 nM: IC50 (second compound 1 µM)
361 nM: IC50 (second compound 31.6 µM)
409 nM: IC50 (second compound 3.16 µM)
384 nM: IC50 (second compound 10 µM)
267 nM: IC50 (second compound 100 µM)
inactive: viability, T/C (second compound 1 µM, first compound 0.00949 µM) 98.5% | viability, T/C (second compound 1 µM, first compound 0.03 µM) 101% | viability, T/C (second compound 1 µM, first compound 0.0949 µM) 74.8% | viability, T/C (second compound 1 µM, first compound 0.3 µM) 59.8% | viability, T/C (second compound 1 µM, first compound 0.949 µM) 24.3% | viability, T/C (second compound 3.16 µM, first compound 0.00949 µM) 105% | viability, T/C (second compound 3.16 µM, first compound 0.03 µM) 98% | viability, T/C (second compound 3.16 µM, first compound 0.0949 µM) 88.9% | viability, T/C (second compound 3.16 µM, first compound 0.3 µM) 59.1% | viability, T/C (second compound 3.16 µM, first compound 0.949 µM) 24.7% | viability, T/C (second compound 10 µM, first compound 0.00949 µM) 102% | outcome (second compound 10 µM, first compound 0.03 µM) | viability, T/C (second compound 10 µM, first compound 0.0949 µM) 87.8% | viability, T/C (second compound 10 µM, first compound 0.3 µM) 61.5% | viability, T/C (second compound 10 µM, first compound 0.949 µM) 14.4% | viability, T/C (second compound 31.6 µM, first compound 0.00949 µM) 102% | viability, T/C (second compound 31.6 µM, first compound 0.03 µM) 98.2% | outcome (second compound 31.6 µM, first compound 0.0949 µM) | viability, T/C (second compound 31.6 µM, first compound 0.3 µM) 57.3% | viability, T/C (second compound 31.6 µM, first compound 0.949 µM) 12.6% | viability, T/C (second compound 100 µM, first compound 0.00949 µM) 101% | viability, T/C (second compound 100 µM, first compound 0.03 µM) 99.8% | viability, T/C (second compound 100 µM, first compound 0.0949 µM) 82.6% | viability, T/C (second compound 100 µM, first compound 0.3 µM) 49%

[2H]c1nc(C)nc([2H])c1-c1cc(NC[C@@H](C)c2cccc3c(C(=O)NC)ccnc23)ncn1 + Cn1nnc2c(C(N)=O)ncn2c1=O
inactive: viability, T/C [1] 98% | viability, T/C [2] 97.6% | viability, T/C [3] 94.8% | viability, T/C [4] 95% | viability, T/C [5] 93.2% | viability, T/C [6] 91.4% | viability, T/C [7] 98.8% | viability, T/C [8] 99.8% | viability, T/C [9] 101% | viability, T/C [10] 101% | viability, T/C [11] 95% | viability, T/C [12] 99.3% | viability, T/C [13] 99.6% | viability, T/C [14] 99.8% | viability, T/C [15] 97.7% | viability, T/C [16] 101% | viability, T/C [17] 98.9% | viability, T/C [18] 96.5% | viability, T/C [19] 97% | viability, T/C [20] 97.7% | viability, T/C [21] 100% | viability, T/C [22] 98% | viability, T/C [23] 97.4% | outcome [24] | viability, T/C [25] 93.4% | viability, T/C [26] 95.7% | viability, T/C [27] 92.5% | viability, T/C [28] 95.9% | viability, T/C [29] 95.8% | viability, T/C [30] 91.2%
> 10000 nM: IC50 (second compound 1 µM) | IC50 (second compound 3.16 µM) | IC50 (second compound 10 µM) | IC50 (second compound 31.6 µM) | IC50 (second compound 100 µM)

Source: PubChem BioAssay AID1845213 (Molecular Pharmacology Branch, DTP, NCI, 2023)
